Laboratory results from publication PMC10254170, “Diastereoselective Synthesis of the Borylated D-Galactose Monosaccharide 3-Boronic-3-Deoxy-D-Galactose and Biological Evaluation in Glycosidase Inhibition and in Cancer for Boron Neutron Capture Therapy (BNCT)” (Molecules, 2023).
Read-outs that look alike come from different tables or passages of the source.

What was measured:
Jack bean α-mannosidase = target: T1, Jack bean α-mannosidase (Canavalia ensiformis, UniProt C0HJB3); assay: Glycosidase inhibition, Jack bean α-mannosidase; type: biochemical
T1 construct: purchased Sigma-Aldrich Co
T1 sequence (C0HJB3 1-981): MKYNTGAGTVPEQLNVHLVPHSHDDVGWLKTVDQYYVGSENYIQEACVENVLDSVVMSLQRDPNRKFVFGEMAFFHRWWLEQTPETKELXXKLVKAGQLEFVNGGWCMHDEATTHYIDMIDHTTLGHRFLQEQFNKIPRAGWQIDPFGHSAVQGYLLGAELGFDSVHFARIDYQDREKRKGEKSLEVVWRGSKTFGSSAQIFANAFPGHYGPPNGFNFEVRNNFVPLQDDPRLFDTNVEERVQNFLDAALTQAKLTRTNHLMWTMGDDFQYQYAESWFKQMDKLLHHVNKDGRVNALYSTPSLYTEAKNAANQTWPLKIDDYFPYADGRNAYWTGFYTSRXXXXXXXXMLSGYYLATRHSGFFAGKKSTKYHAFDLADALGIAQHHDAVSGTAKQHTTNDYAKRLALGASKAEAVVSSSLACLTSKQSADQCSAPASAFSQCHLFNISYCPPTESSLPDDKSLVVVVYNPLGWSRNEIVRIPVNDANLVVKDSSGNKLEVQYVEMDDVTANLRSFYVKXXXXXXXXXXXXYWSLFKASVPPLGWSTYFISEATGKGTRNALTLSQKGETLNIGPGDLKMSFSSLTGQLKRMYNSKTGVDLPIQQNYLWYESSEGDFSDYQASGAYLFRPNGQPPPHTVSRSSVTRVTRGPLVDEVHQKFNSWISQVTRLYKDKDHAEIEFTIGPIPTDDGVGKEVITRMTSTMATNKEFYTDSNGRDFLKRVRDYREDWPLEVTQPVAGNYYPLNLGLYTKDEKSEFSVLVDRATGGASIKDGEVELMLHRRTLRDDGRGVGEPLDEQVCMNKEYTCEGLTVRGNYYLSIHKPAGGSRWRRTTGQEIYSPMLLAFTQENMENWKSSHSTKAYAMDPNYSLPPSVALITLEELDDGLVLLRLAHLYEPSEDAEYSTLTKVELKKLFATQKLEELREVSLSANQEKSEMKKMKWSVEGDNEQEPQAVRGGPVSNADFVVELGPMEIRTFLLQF
Description: (§1) Glycosidase modulation studies need to explore selectivity as well as potency. Our drugs and controls are therefore screened against a panel of glycosidases in methanol (Table 1) to identify the glycosidase-related disease area(s), selectivity profile, and potency of biological action for each drug. The presence of organic boron covalently bonded to the drug structure also grants a reduced toxicity profile. Following the glycosidase inhibition range recommendations, an IC50 value >250 μm denotes weak inhibition, 100–249 μm denotes moderate inhibition, 10–99 μm good inhibition, 0.1–9 μm potent inhibition, and <0.1 μm very potent inhibition. […] Our boronated D-galactose 7 represents a novel lead in glycosidase inhibition.
(§2) The glycosidases screened are the following: rice α-glucosidase, yeast α-glucosidase, Bacillus α-glucosidase, rat intestinal maltase α-glucosidase, almond β-glucosidase, bovine liver β-glucosidase, coffee beans α-galactosidase, bovine liver β-galactosidase, Jack bean α-mannosidase, snail β-mannosidase, Penicillium decumbens α-L-rhamnosidase, bovine kidney α-L-fucosidase, Eschierichia coli β-glucuronidase, bovine liver β-glucuronidase, porcine kidney trehalase, Aspergillus niger amyloglucosidase, and bovine kidney N-acetyl-β-glucosaminidase. The disease areas for each glycosidase are summarized in [1].
(§3) The enzymes α-glucosidase (from yeast), β-glucosidases (from almond and bovine liver), α-galactosidase (from coffee beans), β-galactosidase (from bovine liver), α-mannosidase (from Jack bean), β-mannosidase (from snail), α-L-rhamnosidase (from Penicillium decumbens), α-L-fucosidase (from bovine kidney), trehalase (from porcine kidney), β-glucuronidases (from E. coli and bovine liver), amyloglucosidase (from A. niger), para-nitrophenyl glycosides, and various disaccharides were purchased from Sigma-Aldrich Co.
(§4) Brush border membranes were prepared from the rat small intestine according to the method of Kessler et al. and were assayed at pH 6.8 for rat intestinal maltase using maltose. For rat intestinal maltase, porcine kidney trehalase, and A. niger amyloglucosidase activities, the reaction mixture contained 25 mM maltose and the appropriate amount of enzyme, and the incubations were performed for 10–30 min at 37 °C. The reaction was stopped by heating at 100 °C for 3 min. After centrifugation (600 g; 10 min), the resulting reaction mixture was added to the Glucose CII-test Wako (Wako Pure Chemical Ind., Osaka, Japan). The absorbance at 505 nm was measured to determine the amount of the released D-glucose. Other glycosidase activities were determined using an appropriate para-nitrophenyl glycoside as substrate at the optimum pH of each enzyme. The reaction mixture contained 2 mM of the substrate and the appropriate amount of enzyme. The reaction was stopped by the addition of 400 mM Na2CO3. The released para-nitrophenol was measured spectrometrically at 400 nm. All reactions run in methanol.

[1] = target: T2, bovine liver β-glucuronidase (Bos taurus, UniProt A3KMY8); assay: Glycosidase inhibition, bovine liver β-glucuronidase; type: biochemical
T2 construct: purchased Sigma-Aldrich Co; host or cells: bovine liver
T2 sequence (A3KMY8 1-652): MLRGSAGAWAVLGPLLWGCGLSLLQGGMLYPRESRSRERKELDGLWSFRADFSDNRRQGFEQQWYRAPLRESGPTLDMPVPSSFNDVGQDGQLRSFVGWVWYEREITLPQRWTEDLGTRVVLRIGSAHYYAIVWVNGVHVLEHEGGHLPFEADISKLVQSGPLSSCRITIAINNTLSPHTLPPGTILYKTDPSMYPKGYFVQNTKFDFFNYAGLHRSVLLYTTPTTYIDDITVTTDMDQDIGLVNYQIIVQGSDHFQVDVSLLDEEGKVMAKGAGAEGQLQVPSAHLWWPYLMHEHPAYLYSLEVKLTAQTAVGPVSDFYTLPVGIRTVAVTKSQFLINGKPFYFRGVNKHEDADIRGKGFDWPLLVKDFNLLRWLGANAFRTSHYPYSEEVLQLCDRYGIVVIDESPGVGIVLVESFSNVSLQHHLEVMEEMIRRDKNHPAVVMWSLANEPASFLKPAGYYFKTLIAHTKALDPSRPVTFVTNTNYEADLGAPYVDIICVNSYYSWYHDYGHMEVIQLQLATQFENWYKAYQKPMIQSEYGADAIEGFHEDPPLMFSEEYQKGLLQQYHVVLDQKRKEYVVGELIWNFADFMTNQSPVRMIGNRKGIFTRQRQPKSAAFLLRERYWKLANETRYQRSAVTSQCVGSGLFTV
Description: as §1, §2, §3, §4

[2] = at 100 μM, in methanol, read-out: inhibition %
[3] = at 100 μM, read-out: NI: No inhibition
[4] = at 1000 μM, in methanol, read-out: inhibition %
[5] = at 1000 μM, read-out: NI: No inhibition

Compound: N[C@@H](Cc1ccc(B(O)O)cc1)C(=O)O [BPA, 4-borono-L-phenylalanine]
- inhibition at 100 µM (Jack bean α-mannosidase; [2]): 1.1%
- inhibition at 100 µM (Jack bean α-mannosidase; [3]): < 50%
- inhibition at 100 µM [1, 2]: 7.4%
- inhibition at 100 µM [1, 3]: < 50%

Compound: CC1(C)OCC(C2OC3OC(C)(C)OC3C2[B-]23OCC[NH+]2CCO3)O1 [Compound 6, 3-Deoxy-3-Boronodiethanolamine-1,2:5,6-Di-O-isopropylidene-α-D-galactofuranose]
- inhibition at 100 µM (Jack bean α-mannosidase; [2]): 0%
- inhibition at 100 µM (Jack bean α-mannosidase; [3]): < 50%
- inhibition at 100 µM [1, 2]: 12.4%
- inhibition at 100 µM [1, 3]: < 50%

Compound: OCC1OC(O)C(O)C(B(O)O)C1O [Compound 7, 3-Boronic-3-Deoxy-D-galactose]
- inhibition at 1000 µM (Jack bean α-mannosidase; [4]): 0%
- inhibition at 1000 µM (Jack bean α-mannosidase; [5]): < 50%
- inhibition at 1000 µM [1, 4]: 32.4%
- inhibition at 1000 µM [1, 5]: < 50%

Compound: N[C@@H](Cc1ccc(B(O)O)cc1)C(=O)O [^10B-BPA]
- NI: No inhibition (Jack bean α-mannosidase; at 100 μM): NI (No inhibition (less than 50% inhibition at 100 μM))
- inhibition % (Jack bean α-mannosidase; at 100 μM, in methanol): 0%
- NI: No inhibition ([1]; at 100 μM): NI (No inhibition (less than 50% inhibition at 100 μM))
- inhibition % ([1]; at 100 μM, in methanol): 0%

Compound: Borocaptate sodium [BSH]
- NI: No inhibition (Jack bean α-mannosidase; at 1000 μM): NI (No inhibition (less than 50% inhibition at 1000 μM))
- inhibition % (Jack bean α-mannosidase; at 1000 μM, in methanol): 7.9%
- NI: No inhibition ([1]; at 1000 μM): NI (No inhibition (less than 50% inhibition at 1000 μM))
- inhibition % ([1]; at 1000 μM, in methanol): 19.6%
